Experimental data published in US7001920B2, “Formate salt of O-desmethyl-venlafaxine” (Wyeth, priority 2002, dated 2006).

Key:
[1] = Rat intestinal perfusion test (in situ), effective intestinal permeability Peff; type: in vivo; details: for Peff ODV Fumarate: 50 μg/ml in pH 6.8 perfusion buffer
Procedure: O-desmethyl venlafaxine formate was evaluated for oral absorption characteristics. The rat intestinal perfusion model was used.
Rat Intestinal Perfusion Test
(§1) The rat intestine perfusion technique is a direct way to measure the regional absorption properties of a test compound in the gastrointestinal tract. Rat intestinal permeability coefficient (Peff) can be used to predict human in vivo oral absorption of passively absorbed compounds. Fagerholm, M. Johansson, and H. Lennernäs, ? Comparison between permeability coefficients in rat and human jejunum”, Pharm. […] Other characteristics such as formulable Maximum Absorbable Dose (MAD), FDA Biopharmaceutical Classification, etc. can also be estimated.
Perfusion buffer (PB) consisted of KC1 (5.4 mM), NaC1 (48 mM), Na2HPO4 (28 mM), NaH2PO4 (43 mM), mannitol (35 mM), polyethylene glycol (PEG)-4000 (0.1%, w/v), glucose (10 mM). The pH was adjusted to 6.8 with NaOH and osmolarity was adjusted to 290+10 mOsm/l with 1.0 M NaC1. Before the experiment, ^14C-PEC-4000 (0.02 μCi/mL), 3H-mannitol (0.025 μCi/mL), metoprolol (20 μg/mL), and ODV formate or fumarate (50 μg/mL) were added.
Rats used in this study were Charles River CD males, ranging in weight from approximately 300–350 grams.
Metoprolol (a well-absorbed and passively transported compound) was used as a standard and tested simultaneously along with the ODV compounds. Glucose (a well-absorbed and actively transported compound) was used to monitor the physiological functionality of the intestinal barriers. ^14C-labeled PEG-4000 was used as a non-absorbable marker to describe the water flux across the intestinal wall. ^3H-labeled mannitol was used as a paracellularly transported marker to indicate the integrity of the intestinal tight junctions.
All chemicals were of analytical grade. After each experiment, all the analytical assays were performed promptly. For isotope determinations, 0.5 mL of perfusate sample containing ^14C PEG-4000 and ^3H-mannitol was mixed with 5 mL of scintillation cocktail. Radioactivity was counted in a liquid scintillation counter (Wallac 1409). Glucose concentration was determined by the glucose oxidase method (Biochemistry Analyzer). Metoprolol and the ODV compounds were analyzed by HPLC-UV/Vis (HP-1100 with a diode-array detector), using a YMC AQ 120μ, 5μ, 150×4.6 mm column and step gradient mobile phase containing water/0.1% TFA and acetonitrile. The ODV compounds and metoprolol were detected at 226 and 272 nm UV wavelength, respectively. Blank perfusate was assayed to evaluate the interference at these chromatographic conditions.
The perfusions were performed in three intestinal sections of anesthetized rats: duodenum-jejunum, ileum, and colon. The lengths of the segments were approximately 10–12 cm for small intestine segments and 5–6 cm for colon segments. An inflow cannula was inserted at the proximal end and an outflow cannula was inserted at the distal end. Perfusate was pumped through the segment at 0.19 mL/min, and collected at 20, 40, 55, 70, 85 and 100 minutes.
ODV formate or fumarate was added to the perfusion working buffer at a concentration of 50 μg/mL, which is approximately equivalent to a 200 mg human dose. The disappearance rates of ODV compound, metoprolol, and glucose were determined from each collection interval by comparing to the initial compound solution remaining in the syringe at the end of the 100 minutes. This is to correct for any losses due to binding to the syringe or tubing. Meanwhile, drug concentration in perfusate samples were corrected for water influx/efflux, which was computed, based on ^14C-PEG-4000 concentration changes.
Recovery of ^14C-PEG-4000 was determined to provide information on the integrity of the perfused intestinal segment: % PEGrec=(ΣPEGout/ΣPEGin)*100
Overall ^14C-PEG-4000 recovery was calculated and any data for which the individual recovery fell outside of the range of 96%–103% was excluded from the data set. […]

Norepinephrine reuptake = details: in vitro; read-out: Inhibition of amine reuptake (IC50): Norepinephrine; cited from earlier work
Adrenergic a = details: cited from earlier work
Serotonin reuptake = details: in vitro; read-out: Inhibition of amine reuptake (IC50): Serotonin; cited from earlier work
[2] = in vivo, i.p.; cited from earlier work
Dopamine reuptake = details: in vitro; read-out: Inhibition of amine reuptake (IC50): Dopamine; cited from earlier work
Opiate = details: cited from earlier work
D2 = details: cited from earlier work
Histamine H1 = details: cited from earlier work
Cholinergic = details: cited from earlier work
[3] = Human fraction of dose absorbed (Fa) predicted from rat Peff; details: for human in vivo Fa (fraction of dose absorbed), estimated: small intestine
From the text: as §1
The fraction of dose absorbed, Fa, in human is currently predicted from (Fagerholm, M. ibid: Fa=100*(1−e^−(2*(Peff,rat+β)*(tres/r)) where […] are the correction factors, tres is the residence time in human small intestine; and r is the radius of the human small intestine. Results Rat Jejunal Perfusion Results Site-Specific Absorption of ODV Formate

Solubility in water = type: physicochemical; details: 26 °C, room temperature (about 25 to 27° C.)
From the text: High solubility and high oral absorption are desireable characteristics of a drug, making this salt form of O desmethyl venlafaxine a particularly useful form of O-desmethyl venlafaxine.

[4] = male, CD, in vivo, 100 min, 50 μg/mL, pH 6.8

COCCc1ccc(OCC(O)CNC(C)C)cc1 (centres unmarked) [Metoprolol]
Peff Metoprolol ([1]; colon, metoprolol 20 μg/mL tested simultaneously with ODV formate): 0.583 ± 0.087 10^−5 cm/sec | Peff Metoprolol ([1]; colon, metoprolol 20 μg/mL tested simultaneously with ODV fumarate): 11 10^−5 cm/sec | Peff Metoprolol ([1]; ileum, metoprolol 20 μg/mL tested simultaneously with ODV formate): 3.22 ± 0.07 10^−5 cm/sec | Peff Metoprolol ([1]; ileum, metoprolol 20 μg/mL tested simultaneously with ODV fumarate): 5.3 10^−5 cm/sec | Peff Metoprolol ([1]; jejunum, metoprolol 20 μg/mL tested simultaneously with ODV formate): 2.50 ± 0.11 10^−5 cm/sec | Peff Metoprolol ([1]; jejunum, metoprolol 20 μg/mL tested simultaneously with ODV fumarate): 1.78 ± 0.93 10^−5 cm/sec

CN(C)CC(c1ccc(O)cc1)C1(O)CCCCC1 (centres unmarked) [O-desmethylvenlafaxine, 1-[2-(dimethylamino)-1-(4-phenol)ethyl]cyclohexanol]
IC50 (Norepinephrine reuptake): 1.16 µM | Affinity for Various Neuroreceptors (% inhibition at 1 uM): Adrenergic a (Adrenergic a): 0% | IC50 (Serotonin reuptake): 0.18 µM | Reversal of Reserpine-Induce Hypothermia (minimum effect) [2]: 3 mg/kg i.p. | IC50 (Dopamine reuptake): 13.4 µM | Affinity for Various Neuroreceptors (% inhibition at 1 uM): Opiate (Opiate): 7% | Affinity for Various Neuroreceptors (% inhibition at 1 uM): D2 (D2): 6% | Affinity for Various Neuroreceptors (% inhibition at 1 uM): Histamine H1 (Histamine H1): 0% | Affinity for Various Neuroreceptors (% inhibition at 1 uM): Cholinergic (Cholinergic): 7%

CN(C)CC(c1ccc(O)cc1)C1(O)CCCCC1.O=CO (centres unmarked) [ODV formate, O-desmethylvenlafaxine formate]
human in vivo Fa (fraction of dose absorbed), estimated [3]: about 80% | solubility (Solubility in water): > 425 mg/mL | Peff as percent of metoprolol's Peff value [1, 4]: about 12% | Peff values in the small intestine [1, 4]: 1.34–2.18 10^−5 cm/sec

CN(C)CC(c1ccc(O)cc1)C1(O)CCCCC1.O=C(O)/C=C/C(=O)O (centres unmarked) [ODV fumarate]
in vivo Fa (fraction of dose absorbed), estimated ([3]; colon): 0% | human in vivo Fa (fraction of dose absorbed), estimated [3]: 33–45% | Absorption in the colon ([1]; colon): no measurable absorption | Peff ODV Fumarate / Peff Metoprolol ([1]; colon): 0 | Peff ODV Fumarate ([1]; colon): 0 10^−5 cm/sec | Peff ODV Fumarate / Peff Metoprolol ([1]; ileum): 0.19 ± 0.06 | Peff ODV Fumarate ([1]; ileum): 0.678 ± 0.295 10^−5 cm/sec | Peff ODV Fumarate / Peff Metoprolol ([1]; jejunum): 0.09 | Peff ODV Fumarate ([1]; jejunum): 0.245 10^−5 cm/sec | Peff values in the small intestine ([1]; small intestine (jejunum to ileum)): 0.24–0.68 10^−5 cm/sec
